Test results published in patent publication US20250367151A1, “ANTI-VWF THERAPEUTIC FOR PREVENTING ARTERIAL THROMBI” (GEORGIA TECH RESEARCH CORPORATION, priority 2022, published 2025).
“Also recorded” adds a separate entry of the source. Where two headings read alike, the source gives them in different places. Values belong to the molecule of their own block, whether it stands above or below them.

Legend:
[1] = tested on: human whole blood; assay: Occlusion time in a stenotic microfluidic model of arterial thrombosis; format: cell-based; details: for Average occlusion time: 30 min incubation, shear ~7,500 s-1, untreated 124 s; for Occlusion time, weak NAC responders: 0 mM 112 s; for Occlusion time, strong NAC responders: 0 mM 136 s
From the text: Microfluidic tests were run using a microfluidic system previously described (Griffin M T, et al. Inhibition of high shear arterial thrombosis by charged nanoparticles. Biomicrofluidics 2018;12). The chip contains a single inlet split into four outlet channels 475 μm wide and 250 μm tall. Within each outlet channel is a stenotic region 800 μm long where the height decreases to 70 μm. Flow is controlled using a hydraulic pressure head created by a raised reservoir connected to the inlet which generates an initial shear rate of ˜7,500 s-1 in the stenotic region. Channels are coated overnight with 100 μg/mL collagen Type I (Chrono-Log Corp) in 0.9% saline. Blood is filtered with a 37 μm nylon mesh immediately prior to testing to prevent debris from entering the chip.
(§1) For each chip, the mass flow rate of each outlet channel and brightfield images of two stenotic regions were acquired. Mass flow rates for each channel were measured using four mass balances (Ohaus Scout) connected to the device outlets. Occlusion time was defined as the difference between the time blood enters the stenosis region of the microfluidic device and the time when the mass balances register their peak mass. A brightfield, upright microscope (Leica DM6000B) was used in conjunction with a CCD camera (Pixelfly, PCO) to image the stenotic regions of the middle two channels as the occlusive thrombus formed. Images were taken once per second with a 40× magnification. These images were later thresholded into black and white images to identify platelet rich thrombi from the background blood (ImageJ). Average platelet intensity is defined as the average B/W value of the stenosis region. A value of 0 represents a clean channel with no platelets and increasing values indicate platelet accumulation.
(§2) Occlusion times for each concentration were tested using an unpaired Student's t-test. For survival curves, each possible combinations of pairs of concentrations were tested using a log-rank test. Visual measurement of platelet intensities for each concentration were compared using a Mann-Whitney U test. Statistical significance was determined by p<0.05.
Blood was collected from 10 healthy adult volunteers. Subjects were recruited in accordance with Georgia Institute of Technology's Institutional Review Board Guidelines (IRB #17315). Subjects with known bleeding disorders, a history of anti-platelet medications within 10 days of donation, anemia or transmittable blood disease were excluded from the study. Standard phlebotomy techniques were used to obtain blood. Briefly, 60 mL of blood was drawn slowly through a 21 G needle into a 60 ml syringe containing 0.21 mL of a 1000 USP/mL solution of heparin sodium (Fisher Scientific) in PBS to achieve a heparin concentration of […] in the collected blood. Complete Blood Counts (CBCs) were also performed on all donor samples. All tests were run within 4 hours of the blood draw.
(§3) N-acetyl cysteine was added to blood to create final concentrations of 3 mM, 5 mM and 10 mM. For each human subject, a fresh solution of concentrated NAC (Sigma Aldrich) was created in PBS and neutralized to a pH of 7 with NaOH. The concentrated NAC solution was then diluted so that the same volume of NAC solutions was added to each sample. Negative control (OmM) samples were similarly diluted with 0.5 mL of PBS in 15 mL blood. In three individuals, additional experiments were performed at concentrations of 7.5 mM, 20 mM and 40 mM. For all experiments, NAC was allowed to incubate in the blood at room temperature on a shaker for 30 minutes prior to testing.
To test the effect of N-acetylcysteine on reducing arterial thrombosis in human blood, whole blood was perfused collected from 10 healthy human subjects through a stenotic microfluidic channel coated with type I collagen. A constant pressure head of 16 mmHg was formed using an elevated upstream reservoir to create shear rates of ˜7,500 s-1 in the stenotic region and ˜800 s-1 in the rest of the channel. […]

[2] = tested on: platelet aggregation in human whole blood; assay: Brightfield platelet intensity (lag time, rapid platelet accumulation rate) in the microfluidic model; format: cell-based
Description: as §1, §2, §3
Brightfield measurements of platelet aggregation were used to establish whether the increase in occlusion time observed in 3 mM and 5 mM cases is primarily due to effects on initial platelet attachment (lag time) or the platelet accumulation rate (RPA). Lag time is defined as the time required for the average platelet intensity measurements to increase to 1% of their maximal value. Average lag times for 0 mM, 3 mM, 5 mM NAC experiments are 49 s, 65 s and 107 s, respectively. The small increases in lag time for 3 mM and 5 mM treatments cannot account for the 125-325 s increases in occlusion time seen in the 3 mM and 5 mM conditions. This is instead explained by a decrease in the rapid platelet accumulation rate, defined as the slope of the platelet intensity graph (FIG. 2B). […] The slope of the platelet intensity curve decreases as NAC concentration increases, with 10 mM NAC having a negligible slope. When the RPA rate for each individual is normalized to the individual's control RPA rate, the platelet aggregation rates for 3 mM, 5 mM and 10 mM are 0.66, 0.38 and −0.12, respectively (FIG. 2D, p<0.01 compared to control for all conditions). The small negative aggregation rate for 10 mM is an artifact caused by mixing of blood and PBS at the interface between the priming solution and the sample.

[3] = tested on: occlusive thrombi in common carotid artery of C57 mice; assay: Murine modified-Folts model of arterial thrombosis (carotid stenosis and crush injury); format: in vivo, mouse
Description: Formation of occlusive thrombi was measured using a murine Modified-Folts model (Kim D A, et al. Platelet α-granules are required for occlusive high-shear-rate thrombosis. Blood Adv. 2020;4:3258-3267). C57 mice were used under conditions approved by the university animal use and care committees. Following isolation of the common carotid artery, blood flow through the vessel was measured with a flow probe (Transonic Systems). A 6.0 silk suture was then tied around the vessel and tightened until the measured flow rate was approximately 50% of the initial value. This creates a stenosis region with high shear-rate at the apex. The artery is then crushed with forceps to damage the endothelial cells and expose collagen in the extracellular matrix.
In single injection experiments, 13 mice were treated with either 200 mg/kg NAC, 400 mg/kg NAC, or PBS. 100 μL of freshly prepared, neutralized NAC solution or vehicle was I.V. injected approximately 45 minutes prior to the crush injury.
For repeat injection experiments, mice were given either PBS, 200 mg/kg, or 400 mg/kg NAC through a 100 μL I.V. injection 6 hr prior to surgery. Mice were then given a second injection of PBS, 200 mg/kg, or 400 mg/kg NAC approximately 45 minutes prior to the crush injury. Additionally, 4 mice were given a dose of 400 mg/kg NAC through an 100 μL injection 6 hr prior to the surgery, followed by a second injection of PBS immediately prior to the crush injury.
Blood flow measurements were taken with a Transonic flow probe and acquired with Powerlab software (ADInstruments) (Id.). Time to initial occlusion is defined as the time between the crush injury and the first point where flow reaches approximately 0. After occlusion, if flow remains around 0 then the occlusion is characterized as stable. If instead the thrombus detaches and flow increases, the clot is labelled an unstable occlusion.
Statistical significance in time to initial occlusion was determined using unpaired student t-test (p <0.05). Differences in thrombus stability are determined using a Pearson's Chi-squared test (p <0.05).

[4] = tested on: tail bleeding in mice; assay: Tail bleeding model; format: in vivo, mouse; details: 400 mg/kg NAC; PBS 2.35 minutes, p=0.14
Description: Bleeding times were assessed using the tail bleeding model described previously (Liu Y, Standardizing a simpler, more sensitive and accurate tail bleeding assay in mice. World J Exp Med. 2012;2:30). Briefly, mice were anesthetized and the distal 3 mm segment of the tail was transected and placed in a vial of warm saline. The injuries were monitored visually to determine the time it took for bleeding to cease.

[5] = Elimination of NAC from mouse plasma (literature); format: in vivo; details: calculated from half-life of 34 minutes
[6] = tested on: occlusive thrombi in common carotid artery of C57 mice; assay: Murine modified-Folts model of arterial thrombosis (carotid stenosis and crush injury); format: in vivo, mouse; details: 200 mg/kg NAC 6 hrs prior and immediately prior to crush injury
[7] = Zhou et al. 2015; cited from earlier work
[8] = Olsson et al. 1988; cited from earlier work
[9] = tested on: human whole blood; assay: VWF recovery experiment in 10 mM NAC treated blood, microfluidic system; format: cell-based
Description: VWF recovery experiments were performed using 3 individual's 10 mM NAC samples prepped as detailed above. 19 IU/mL of VWF (Humate) was added to these samples and they were immediately perfused through the microfluidic system. Occlusion times and platelet intensities were measured as above.
To test if the NAC prevented arterial thrombosis by modifying VWF as hypothesized, new VWF was added to blood samples treated with 10 mM NAC. […] Although OTs of the recovery samples were higher than the control, the average RPA rates for the control and recovery conditions were similar. By shifting the control curve right, simulating a 76 s increase in lag time, the two curves show a high degree of concordance (FIG. 9).

[10] = tested on: tail bleeding in mice; details: mice treated with ASA, previously seen (Decouture et al. 2019); cited from earlier work
[11] = two doses of 400 mg/kg NAC 6 hrs apart

Average bleeding time [4]: 2.76 min
Plasma concentration at 6 hrs, of the initial concentration [5]: < 0.05%
Molecule: CC(=O)N[C@@H](CS)C(=O)O [NAC, N-acetylcysteine]
Average occlusion time ([1]; 3 mM NAC): 255 s
Occlusion time, weak NAC responders ([1]; 3 mM NAC): 182 s
Occlusion time, strong NAC responders ([1]; 3 mM NAC): 328 s
Increase in occlusion time ([1]; 3 mM and 5 mM conditions vs control): 125 to 325 s
Average occlusion time ([1]; 5 mM NAC): 458 s
Occlusion time, weak NAC responders ([1]; 5 mM NAC): 220 s
Occlusion time, strong NAC responders ([1]; 5 mM NAC): 695 s
Samples not occluding within the time limit of the experiment ([1]; 7.5 mM NAC, 3 individuals, 1000 s window): ~64%
Occlusion outcome ([1]; 7.5 mM NAC, 1000 s window): results were mixed
Occlusion outcome ([1]; 20 mM NAC): did not occlude
Occlusion outcome ([1]; 40 mM NAC): did not occlude
Inflection point of 4-parameter logistic fit of occlusion time vs NAC dose ([1]; r^2 = 0.782): 5.6545 mM
Logistic growth rate of 4-parameter logistic fit of occlusion time ([1]; r^2 = 0.782): 0.7145
Lower asymptote of 4-parameter logistic fit of occlusion time ([1]; r^2 = 0.782): 118.5 s
Upper asymptote of 4-parameter logistic fit of occlusion time ([1]; r^2 = 0.782): 1028.4 s
Platelet aggregation (RPA) rate normalized to the individual's control RPA rate ([2]; 3 mM NAC): 0.66
Reduction of the maximum growth rate of thrombi ([2]; 3 mM NAC): 30%
Average lag time (time to 1% of maximal platelet intensity) ([2]; 3 mM NAC, 0 mM 49 s): 65 s
Platelet aggregation (RPA) rate normalized to the individual's control RPA rate ([2]; 5 mM NAC): 0.38
Reduction of the maximum growth rate of thrombi ([2]; 5 mM NAC): 60%
Average lag time (time to 1% of maximal platelet intensity) ([2]; 5 mM NAC, 0 mM 49 s): 107 s
Visible platelet aggregation ([2]; 10 mM NAC, 1000 s of the experiment): no visible aggregation of platelets
Lag time (time to 1% of maximal platelet intensity) ([2]; 10 mM NAC, 0 mM 49 s): 910 s
Platelet aggregation (RPA) rate normalized to the individual's control RPA rate ([2]; 10 mM NAC, small negative value said to be an artifact): −0.12
Visible platelet aggregation ([2]; 20 mM NAC): no visible platelet aggregation
Visible platelet aggregation ([2]; 40 mM NAC): no visible platelet aggregation
Visible platelet aggregation ([2]; NAC concentrations over 10 mM): no visible platelet aggregation
Clot stability ([3]; 200 mg/kg NAC single injection): recanalized completely; also recorded: more likely to be unstable and recanalize
Flow after recanalization, of the initial flow ([3]; 200 mg/kg NAC single injection): ~100%
Clot stability ([3]; 400 mg/kg NAC 6 hrs prior to surgery, PBS immediately prior to crush injury): formed unstable thrombi
Occlusion ([3]; 400 mg/kg NAC I.V. single injection, N=3, 45 minutes of the experiment): no occlusion was observed; also recorded: completely prevented occlusion
Observations following administration ([3]; NAC I.V., single injection experiments): lower basal blood flow and initial labored breathing
Clot stability [3, 11]: majority forming unstable thrombi
Time to clotting [3, 11]: ≤ 10 min
Tissue at crush injury site [3, 11]: more severe tissue damage and hemorrhage
Mice that formed no thrombi and remained patent during the entire experiment [6]: Three of the 4
Estimated elimination half-life in mouse plasma [7]: 34 min
Oral bioavailability [8]: 4-9%

Molecule: VWF: VWF (Humate) added at 19 IU/mL to 10 mM NAC treated blood
Increase in lag time of recovery condition vs control (shift of control curve) ([9]; 10 mM NAC + 19 IU vWF): 76 s
Occlusive thrombus formation after VWF addition ([9]; 19 IU/mL VWF added to blood treated with 10 mM NAC): recover the ability to form rapid occlusive thrombi; also recorded: forms occlusive thrombi

Molecule: CC(=O)Oc1ccccc1C(=O)O [ASA]
Average bleeding time [10]: 5.72 min
